This note sets out measurements from patent US4843062A, “N-acyl-N-napthoylglycines as aldose reductase inhibitors” (American Home Products Corporation, priority 1987, dated 1989).

The target of one experiment is T1, aldose reductase (Bos taurus, UniProt P16116).
T1 construct: preparation of the enzyme from bovine lens; from tissue; host or cells: bovine lens
The experiment in a line: Aldose reductase inhibition in vitro (enzyme preparation from bovine lens, modified Hayman and Kinoshita procedure). The conditions noted are these: for inhibition at 10 µM / inhibition at 1 µM: read-out: % Inhibition IN VITRO; for inhibition at 0.1 µM / % Inhibition IN VITRO: 10^-7 M. It counts as biochemical. The procedure:
(§1) Only two minor reagent changes were made: (a) The rinsing mixture was an aqueous 5% (w/v) trichloroacetic acid solution and (b) the stock solution was prepared by dissolving 25 mg of dulcitol in 100 mL of an aqueous trichloroacetic acid solution. [N.B.: For each experiment the average value found in the tissue from rats fed the glucose diet was subtracted from the individual values found in the corresponding tissue in galactose-fed rats to obtain the amount of polyol accumulated.] […] In the present case the procedure of Hayman and Kinoshita was modified in that the final chromatography step was omitted in the preparation of the enzyme from bovine lens.

In experiment [1] the test system is lens (galactitol accumulation). The experiment in a line: Galactitol (dulcitol) accumulation in lens of galactosemic rats. It counts as in vivo, rat (male, Sprague-Dawley). The conditions noted are these: four days. From the text: The aldose reductase inhibiting property of the compounds of this invention and the utilization of the compounds in preventing, diminishing and alleviating diabetic complications are demonstrable in experiments using galactosemic rats, see Dvornik et al, Science, 182, 1146 (1973). Such experiments are exemplified hereinbelow after the listing of the following general comments pertaining to these experiments.
(§2) (a) Four or more groups of six male rats, 50-70 g, Sprague-Dawley strain, were used. The first group, the control group, was fed a mixture of laboratory chow (rodent Laboratory Chow, Purina) and glucose at 20% (w/w %) concentration. The untreated galactosemic group and the drug-treated groups were fed a similar diet in which galactose is substituted for glucose. The test compound was either admixed to the diet or administered by gavage. In experiments involving compound administration in the diet, the average dose administered was calculated from the actual food intake of the animals in each group. The concentration of galactose in the diet of the treated groups was the same as that for the untreated galactosemic group.
(§3) (b) After four days, the animals were killed by decapitation. The eyeballs were removed and punctured with a razor blade; the freed lenses were rolled gently on filter paper and weighed. The sciatic nerves were dissected as completely as possible and weighed. Both tissues when frozen can be kept up to two weeks before being analyzed for galactitol.
(c) The polyol determination was performed by a modification of the procedure of M. Kraml and L. Cosyns, Clin. Biochem., 2,373 (1969). Only two minor reagent changes were made: (a) The rinsing mixture was an aqueous 5% (w/v) trichloroacetic acid solution and (b) the stock solution was prepared by dissolving 25 mg of dulcitol in 100 mL of an aqueous trichloroacetic acid solution. [N.B.: For each experiment the average value found in the tissue from rats fed the glucose diet was subtracted from the individual values found in the corresponding tissue in galactose-fed rats to obtain the amount of polyol accumulated.] The aldose reductase inhibiting effects of the compounds of formula (I) were also tested by employing an in vitro testing procedure similar to that described by S. Hayman and J. H. Kinoshita, J. Biol. Chem., 240,877 (1965). In the present case the procedure of Hayman and Kinoshita was modified in that the final chromatography step was omitted in the preparation of the enzyme from bovine lens.
(§4) The figures under L, N, and D represent the percentage decrease of galactitol accumulation in the tissues of the lens, sciatic nerve, and diaphragm, respectively, for treated rats as compared to untreated rats.

For experiment [2], the system named is sciatic nerve (galactitol accumulation). The experiment in a line: Galactitol (dulcitol) accumulation in sciatic nerve of galactosemic rats. The following applies: four days. The class given is in vivo, rat (male, Sprague-Dawley).
Excerpt: (§5) Such experiments are exemplified hereinbelow after the listing of the following general comments pertaining to these experiments.
as §2, with “The untreated galactosemic group and the drug-treated groups were fed a similar diet in which galactose is substituted for glucose.” left out
as §3
as §1, with “(c) The polyol determination was performed by a modification of the procedure of M. Kraml and L. Cosyns, Clin. Biochem., 2,373 (1969). Only” for “Only”
as §4

Experiment [3] concerns diaphragm (galactitol accumulation). The experiment in a line: Galactitol (dulcitol) accumulation in diaphragm of galactosemic rats. It counts as in vivo, rat (male, Sprague-Dawley). The conditions noted are these: four days.
Excerpt: as §5
as §2, with “The untreated galactosemic group and the drug-treated groups were fed a similar diet in which galactose is substituted for glucose.” left out
as §1, with “(c) The polyol determination was performed by a modification of the procedure of M. Kraml and L. Cosyns, Clin. Biochem., 2,373 (1969). Only” for “Only”
as §4

Where two headings read alike, the source gives them in different places.

With `COc1ccc2c(C(=O)N(CC(=O)O)C(=O)OCc3ccccc3)cccc2c1C(F)(F)F`, the inhibition at 10 µM on aldose reductase (10^-5 M) was determined as 95%. The inhibition at 1 µM on aldose reductase (10^-6 M) worked out at 89%. The compound also showed an inhibition at 0.1 µM at aldose reductase of 66%. Also, the “% Lowering dulcitol accumulation IN VIVO (%)L” value in experiment [1] (67 mg/kg) is reported as “N.S”. Moreover, the “% Lowering dulcitol accumulation IN VIVO (%)N” value in experiment [2] (67 mg/kg) was “N.S”. In experiment [3] (67 mg/kg), the “% Lowering dulcitol accumulation IN VIVO (%)D” value is listed as “N.S”.

For the compound `CCCOC(=O)N(CC(=O)O)C(=O)c1cccc2c(C(F)(F)F)c(OC)ccc12` [Example 3], the inhibition at 0.04 µM at aldose reductase (4 × 10^-8 M) came to 48%. In addition, at aldose reductase (10^-5 M), the inhibition at 10 µM was found to be 95%. For the same compound, on aldose reductase (10^-6 M), the inhibition at 1 µM was determined as 90%. This compound showed an inhibition at 0.1 µM against aldose reductase of 81%. Besides, the “% Lowering dulcitol accumulation IN VIVO (%)L” value in experiment [1] (48 mg/kg) was “N.S”. Also, the “% Lowering dulcitol accumulation IN VIVO (%)N” value in experiment [2] (48 mg/kg) is given as “N.S”. Further, the “% Lowering dulcitol accumulation IN VIVO (%)D” value in experiment [3] (48 mg/kg) is listed as “N.S”.

As for `COc1ccc2c(C(=O)N(CC(=O)O)C(=O)OC(C)C)cccc2c1C(F)(F)F` [Example 4], in experiment [1] (dose not given (N.S.)), the “% Lowering dulcitol accumulation IN VIVO (%)L” value is “N.S”. For the same compound, the “% Lowering dulcitol accumulation IN VIVO (%)N” value in experiment [2] (dose not given (N.S.)) was “N.S”. For the same compound, in experiment [3] (dose not given (N.S.)), the “% Lowering dulcitol accumulation IN VIVO (%)D” value is reported as “N.S”.

With `COc1ccc2c(C(=O)N(C=O)CC(=O)O)cccc2c1C(F)(F)F` [Example 8, N-Fromyl-N-[[6-methoxy-5-(trifluoromethyl)-1-naphthalenyl]carbonyl]glycine], on aldose reductase (10^-5 M), the inhibition at 10 µM is 95%. For the same compound, on aldose reductase, the inhibition at 0.1 µM was 89% and the inhibition at 1 µM worked out at 96%. Further, in experiment [2] (107 mg/kg), the “% Lowering dulcitol accumulation IN VIVO (%)N” value is recorded as 51%.

Regarding `COc1ccc2c(C(=O)N(CC(=O)O)C(C)=O)cccc2c1C(F)(F)F` [Example 9], the inhibition at 1 µM on aldose reductase (10^-6 M) was found to be 91%. In addition, at aldose reductase, at 0.1 µM the inhibition was 61% and the inhibition at 10 µM was found to be 96%. In experiment [1] (100 mg/kg), the “% Lowering dulcitol accumulation IN VIVO (%)L” value is listed as “N.S”. Besides, the “% Lowering dulcitol accumulation IN VIVO (%)N” value in experiment [2] (100 mg/kg) was 36%.

On to `COc1ccc2c(C(=O)N(CC(=O)O)C(=O)N(C)C)cccc2c1C(F)(F)F` [Example 11, N-[(Dimethylamino)carbonyl]-N-[[6-methoxy-5-(trifluoromethyl)-1-naphthalenyl]carbonyl]glycine], for which, at aldose reductase (10^-5 M), the inhibition at 10 µM was 22%. In addition, on aldose reductase (10^-6 M), the inhibition at 1 µM came out at 3%. In addition, the “% Inhibition IN VITRO” value at aldose reductase is “N.S”.

As to `COC(=O)N(CC(=O)O)C(=O)c1cccc2c(Br)cccc12` [Example 12], the inhibition at 10 µM on aldose reductase (10^-5 M) stood at 85%. The inhibition at 1 µM on aldose reductase (10^-6 M) came to 54%. At aldose reductase, this compound returned an inhibition at 0.1 µM of 10%. Besides, the “% Lowering dulcitol accumulation IN VIVO (%)L” value in experiment [1] (102 mg/kg) is on record as “N.S”. Also, in experiment [2] (102 mg/kg), the “% Lowering dulcitol accumulation IN VIVO (%)N” value is “N.S”.

Regarding `O=C(O)CN(C(=O)OCc1ccccc1)C(=O)c1cccc2c(Br)cccc12` [Example 13], on aldose reductase (10^-5 M), the inhibition at 10 µM was 87%. Moreover, the inhibition at 1 µM at aldose reductase (10^-6 M) was 57%. On aldose reductase, this compound returned an inhibition at 0.1 µM of 12%.

For `O=CN(CC(=O)O)C(=O)c1cccc2c(Br)cccc12` [Example 14], at aldose reductase (10^-5 M), the inhibition at 10 µM came to 90%. Besides, the inhibition at 1 µM at aldose reductase (10^-6 M) turned out to be 73%. The compound also came in with an inhibition at 0.1 µM against aldose reductase of 22%. In experiment [1] (104 mg/kg), the “% Lowering dulcitol accumulation IN VIVO (%)L” value is “N.S”. Further, the “% Lowering dulcitol accumulation IN VIVO (%)N” value in experiment [2] (104 mg/kg) is “N.S”.

On to `CN(C)C(=O)N(CC(=O)O)C(=O)c1cccc2c(Br)cccc12` [Example 17], for which the inhibition at 10 µM on aldose reductase (10^-5 M) stood at 23%. Further, the inhibition at 1 µM on aldose reductase (10^-6 M) stood at 4%. The “% Inhibition IN VITRO” value at aldose reductase is recorded as “N.S”.

Take `COC(=O)N(CC(=O)O)C(=S)c1cccc2c(C(F)(F)F)c(OC)ccc12` [Example 18a, N-[[6-Methoxy-5-(trifluoromethyl)-1-naphthalenyl]thioxomethyl]-N-[(methoxy)carbonyl]glycine]: the inhibition at 1 µM on aldose reductase (10^-6 M) turned out to be 88%. Besides, on aldose reductase, the inhibition at 0.1 µM was 29% and the inhibition at 10 µM worked out at 94%. For the same compound, the “% Lowering dulcitol accumulation IN VIVO (%)L” value in experiment [1] (51 mg/kg) was “N.S”. Besides, the “% Lowering dulcitol accumulation IN VIVO (%)N” value in experiment [2] (51 mg/kg) is on record as “N.S”.

Consider `COc1ccc2c(C(=S)N(C)CC(=O)O)cccc2c1C(F)(F)F` [Example 18b, N-[[6-methoxy-5-(trifluoromethyl)-1-napthalenyl]thioxomethyl]-N-methyglycine, reference compound], for which the “% Lowering dulcitol accumulation IN VIVO (%)L” value in experiment [1] (9 mg/kg) was “N.S”.

For orientation: inhibition means the drop in the measured response relative to a control, in per cent.
